Reference: publication PMC12163635, “Synthetic Retinoids for the Modulation of Genomic and Nongenomic Processes in Neurodegenerative Diseases” (ACS Omega, 2025)

Tests used:
[1] = test system: Sil-15 cells containing a RARE driving a lacZ reporter; test: X-Gal-based RA reporter assay (genomic response); type: cell-based; set-up: genomic response Emax (±95% CI): unit not given here; settings: for genomic response Emax (±95% CI) / EC50: Sil-15 reporter cells; for genomic response Emax (±95% CI): absorbance at 650 nm; for genomic E max compared with ATRA / genomic EC50 compared with ATRA: nonoverlapping 95% CI; for EC50: read-out: genomic response EC50 (±95% CI), overnight, 10^–6 to 10^–14 M
Source text: Following chemical design and synthesis, the synthetic retinoid library was screened for genomic and nongenomic biological activities and compared to the response of the endogenous retinoid, ATRA. In these assays, the EC50 value represented the concentration of retinoid that gave half-maximal response (potency), while the E max value represented the maximum response achievable from the retinoid (efficacy).
The transcriptional genomic activity of the retinoids was quantified using Sil-15 cells containing a RARE driving a lacZ reporter. […] Twenty-two of the synthetic retinoids were effective in inducing genomic activity. […] In addition, the retinoids varied in their efficacies.
The Sil-15 cell line was used in the X-gal RA reporter assay described below. The cells were grown in Dulbecco’s modified Eagle’s medium (DMEM) containing 10% fetal bovine serum (FCS) (Invitrogen/Gibco), 0.6% penicillin-streptomycin (Gibco) and 0.8 mg/mL G418 sulfate (Sigma) for selection. They were maintained in a humidified atmosphere containing 5% CO2 at 37 °C. The medium was changed three times a week and the cells were passaged at 70% confluence using 0.05% trypsin-EDTA.
Sil-15 cells are F9 teratocarcinoma cells stably transfected with a plasmid containing the LacZ gene under the control of a DR5-type RA response element (RARE). The reporter cell line was used to detect the transcriptional genomic activity of ATRA and other retinoids by colorimetrically quantifying the insoluble blue product generated by β-galactosidase from X-gal during the assay. The assay was performed by plating 100,000 cells per well in the 0.1% gelatin-coated 96-well plates and leaving them to attach overnight. The ATRA/retinoids dilutions ranging from 10^–6 to 10^–14 M were incubated on the reporter cells overnight at 37 °C, in 5% CO2. A standard curve of ATRA was included in each experiment to ensure the reproducibility of the results between assays performed on different days. All the assays for ATRA as well as the retinoids were quantified in triplicate. Serial dilutions of retinoids were prepared from a stock solution under red/orange light. The stock solutions prepared in DMSO for each retinoid varied depending on the solubility of each compound. Each stock was stored at −20 °C and protected from light. The next day, Sil-15 cells were washed with PBS, fixed with 1% glutaraldehyde and 1 mM MgCl2 solution for 15 min, and developed in X-gal developing solution (0.2% X-Gal, 1 mM MgCl2, 3.3 mM potassium ferricyanide and 3.3 mM potassium ferrocyanide in PBS). The plates were read on an E max microplate reader (Molecular Devices) at 650 nm.
(§1) All data are presented as mean ± SEM of three independent experiments with biological triplicates. Statistical analyses were performed in Microsoft Office Excel 2019 or GraphPad Prism 7.0c version (Prism, GraphPad Software, San Diego, CA). Neurite outgrowth data were analyzed by one-way ANOVA with Newman-Keuls multiple comparison test as appropriate; P value <0.05 was considered statistically significant. *P < 0.05, **P < 0.01. Data for X-Gal and ERK1/2 phosphorylation were analyzed using sigmoidal dose–response analysis of log (agonist) versus response curve (stimulation).

[2] = test system: ERK1/2 phosphorylation in SH-SY5Y cells; test: ERK1/2 phosphorylation (nongenomic response), AlphaScreen SureFire; type: cell-based, human; set-up: nongenomic response Emax (±95% CI): unit not given here; settings: for EC50: Homo sapiens, read-out: nongenomic response EC50 (±95% CI); for nongenomic E max compared with ATRA: nonoverlapping 95% CI
Procedure: After screening the retinoids for genomic responses, they were tested for their nongenomic ability to rapidly phosphorylate ERK1/2 in the SH-SY5Y cell line. ATRA is known as a potent activator of ERK1/2 − and was used as the standard for comparison. […] The efficacies of the remaining seven retinoids were similar to ATRA.
SH-SY5Y cell line as used in ERK phosphorylation and neurite outgrowth assays described below. The cells were grown in DMEM containing 10% FCS at 37 °C with 5% CO2. The medium was changed three times a week and the cells were passaged at 70% confluence using 0.05% trypsin-EDTA.
To quantify ERK1/2 phosphorylation, SH-SY5Y cells (100,000 cells/well) were plated onto 96-well plates and serum-starved for 24 h in DMEM. Cells were assayed in serum-free DMEM and stimulated for 60 min at 37 °C in a humidified atmosphere. Retinoids were tested at concentrations ranging from 10 to 4 to 10–11 M and at a final concentration of 0.1% DMSO. At the end of the assay, the medium was removed, and cells were lysed with lysis buffer supplied in the AlphaScreen SureFire ERK1/2 kit (PerkinElmer). The assay was performed in 384-well white Proxiplates according to the manufacturer’s instructions and using the beads supplied in the protein A general IgG detection kit (PerkinElmer). Briefly, 4 μL samples were incubated with 7 μL of the freshly prepared mixture containing donor and acceptor beads. Plates were incubated at room temperature and read with the Envision system (PerkinElmer Life Sciences) using AlphaScreen settings.
as §1

Row | Structure (SMILES) | EC50 ([2]; SH-SY5Y cells, 1 h) [nM] | EC50 [1] [nM] | nongenomic response EC50 (±95% CI) ([2]; SH-SY5Y cells, 1 h) | genomic response Emax (±95% CI) [1] | genomic E max compared with ATRA [1] | nongenomic response Emax (±95% CI) ([2]; SH-SY5Y cells, 1 h) | nongenomic E max compared with ATRA [2] | induction of ERK1/2 phosphorylation (nongenomic activity) ([2]; SH-SY5Y cells, 1 h) | genomic EC50 compared with ATRA [1]
1 | CC1(C)CCC(C)(C)c2cc(C#Cc3ccc(C(=O)O)c(F)c3)ccc21 [Compound 13, 2-Fluoro-4-[2-(5,5,8,8-tetramethyl-5,6,7,8-tetrahydronaphthalen-2-yl)ethynyl]benzoic Acid] | 2.44 | – | – | 190 (±8.2) | significantly higher E max than ATRA | 43.4 (±1.81) | E max values significantly lower than ATRA | – | –
2 | CC1(C)CCC(C)(C)c2cc(C#Cc3ccc(C(=O)O)cc3F)ccc21 [Compound 14, 3-Fluoro-4-[2-(5,5,8,8-tetramethyl-5,6,7,8-tetrahydronaphthalen-2-yl)ethynyl]benzoic Acid] | 27.4 | 0.0581 | – | 149 (±14.9) | significantly lower E max than ATRA | 50.7 (±2.51) | – | – | –
3 | CC1(C)CCC(C)(C)c2cc(C#Cc3cc(F)c(C(=O)O)c(F)c3)ccc21 [Compound 15, 2,6-Difluoro-4-[2-(5,5,8,8-tetramethyl-5,6,7,8-tetrahydronaphthalen-2-yl)ethynyl]benzoic Acid] | 125 | – | – | 185 (±4.9) | significantly higher E max than ATRA | 76.2 (±5.47) | E max values significantly higher than ATRA | showed activity toward the nongenomic pathway | –
4 | CC1(C)CCC(C)(C)c2cc(C#Cc3ccc(C(=O)O)cc3Cl)ccc21 [Compound 16, 3-Chloro-4-[2-(5,5,8,8-tetramethyl-5,6,7,8-tetrahydronaphthalen-2-yl)ethynyl]benzoic Acid] | 90.8 | 13.6 | – | 97.2 (±7.9) | significantly lower E max than ATRA | 36.9 (±2.77) | E max values significantly lower than ATRA | – | significantly higher EC50 values than ATRA
5 | Cc1cc2c(cc1C#Cc1ccc(C(=O)O)c(F)c1)C(C)(C)CCC2(C)C [Compound 17, 2-Fluoro-4-[2-(3,5,5,8,8-pentamethyl-5,6,7,8-tetrahydronaphthalen-2-yl)ethynyl]benzoic Acid] | 5.73 | 0.134 | – | 170 (±9.35) | – | 44.1 (±2.69) | – | – | significantly lower EC50 than ATRA
6 | Cc1cc2c(cc1C#Cc1ccc(C(=O)O)cc1F)C(C)(C)CCC2(C)C [Compound 18, 3-Fluoro-4-[2-(3,5,5,8,8-pentamethyl-5,6,7,8-tetrahydronaphthalen-2-yl)ethynyl]benzoic Acid] | 13.1 | 1.38 | – | 140 (±12.1) | significantly lower E max than ATRA | 40.1 (±1.86) | E max values significantly lower than ATRA | – | –
7 | Cc1cc2c(cc1C#Cc1cc(F)c(C(=O)O)c(F)c1)C(C)(C)CCC2(C)C [Compound 19, 2,6-Difluoro-4-[2-(3,5,5,8,8-pentamethyl-5,6,7,8-tetrahydronaphthalen-2-yl)ethynyl]benzoic Acid] | 144 | 0.27 | – | – | – | 77.6 (±2.92) | E max values significantly higher than ATRA | – | significantly lower EC50 than ATRA
8 | COc1cc2c(cc1C#Cc1cc(F)c(C(=O)O)c(F)c1)C(C)(C)CCC2(C)C [Compound 22, 2,6-Difluoro-4-[2-(3-methoxy-5,5,8,8-tetramethyl-5,6,7,8-tetrahydronaphthalen-2-yl)ethynyl]benzoic Acid] | 3.37 | 0.146 | – | 155 (±10.6) | significantly lower E max than ATRA | 71.2 (±3.9) | – | – | –

More lines, main results first:

Row | EC50 ([2]; SH-SY5Y cells, 1 h) [nM] | EC50 [1] [nM] | nongenomic response EC50 (±95% CI) ([2]; SH-SY5Y cells, 1 h) | Structure (SMILES) | genomic response Emax (±95% CI) [1] | genomic E max compared with ATRA [1] | nongenomic response Emax (±95% CI) ([2]; SH-SY5Y cells, 1 h) | nongenomic E max compared with ATRA [2] | induction of ERK1/2 phosphorylation (nongenomic activity) ([2]; SH-SY5Y cells, 1 h) | genomic EC50 compared with ATRA [1]
9 | 23.9 | – | – | CC1(C)CCC(C)(C)c2cc(C#Cc3ccc(C(=O)O)cn3)ccc21 [Compound 23, 6-[2-(5,5,8,8-Tetramethyl-5,6,7,8-tetrahydronaphthalen-2-yl)ethynyl]pyridine-3-carboxylic Acid] | 210 (±8.45) | significantly higher E max than ATRA | 85.7 (±9.23) | – | showed activity toward the nongenomic pathway | –
10 | 13.6 | 0.146 | – | CC1(C)CCC(C)(C)c2cc(C#Cc3ccc(C(=O)O)nc3)ccc21 [Compound 24, 5-[2-(5,5,8,8-Tetramethyl-5,6,7,8-tetrahydronaphthalen-2-yl)ethynyl]pyridine-2-carboxylic Acid] | 207 (±19.5) | significantly higher E max than ATRA | 59.7 (±3.34) | – | showed activity toward the nongenomic pathway | –
11 | 20.7 | 3.98 | – | CC1(C)CCC(C)(C)c2cc(C#Cc3cnc(C(=O)O)cn3)ccc21 [Compound 25, 5-[2-(5,5,8,8-Tetramethyl-5,6,7,8-tetrahydronaphthalen-2-yl)ethynyl]pyrazine-2-carboxylic Acid] | 174 (±8.25) | – | 27.9 (±1.66) | E max values significantly lower than ATRA | – | significantly higher EC50 values than ATRA
12 | 459 | 0.427 | – | Cc1cc2c(cc1C#Cc1ccc(C(=O)O)cn1)C(C)(C)CCC2(C)C [Compound 26, 6-[2-(3,5,5,8,8-Pentamethyl-5,6,7,8-tetrahydronaphthalen-2-yl)ethynyl]pyridine-3-carboxylic Acid] | 177 (±6.65) | – | 56.4 (±6.36) | E max values significantly higher than ATRA | – | significantly lower EC50 than ATRA
13 | – | 3.16 | no response | COc1cc2c(cc1C#Cc1ccc(C(=O)O)cn1)C(C)(C)CCC2(C)C [Compound 27, 6-[2-(3-Methoxy-5,5,8,8-tetramethyl-5,6,7,8-tetrahydronaphthalen-2-yl)ethynyl]pyridine-3-carboxylic Acid] | 176 (±8.55) | – | no response | – | lacked nongenomic activity | significantly higher EC50 values than ATRA
14 | 5.42 | 0.826 | – | Cc1cc2c(cc1C#Cc1ncc(C(=O)O)cn1)C(C)(C)CCC2(C)C [Compound 28, 2-[2-(3,5,5,8,8-Pentamethyl-5,6,7,8-tetrahydronaphthalen-2-yl)ethynyl]pyrimidine-5-carboxylic Acid] | 192 (±12.7) | – | 44.7 (±3.15) | – | – | –
